Results from ChEMBL document CHEMBL1130666, “Benzimidazole derivatives as arginine mimetics in 1,4-benzodiazepine nonpeptide vitronectin receptor (alpha v beta 3) antagonists” (Bioorg Med Chem Lett, 1998).

Experiments:
Integrin alpha-V/beta-3 [1] = target: T1, Integrin alpha-V/beta-3 (Homo sapiens, UniProt P05106+P06756); test: Binding affinity evaluated against vitronectin receptor (alphaV-beta3) receptor; type: protein-complex assay
Integrin alpha-V/beta-3 [2] = target: T1, Integrin alpha-V/beta-3; test: Effect against adhesion of HEK 293 cells transfected with human alpha-v beta-3 to vitronectin coated plates; type: functional, cell-based, HEK293
[3] = target: Integrin alpha-IIb/beta-3 (Homo sapiens, UniProt P05106+P08514); test: Affinity for alphaIIb-beta3 receptor; type: protein-complex assay
Sequence of Integrin alpha-IIb/beta-3 (P05106 27-788 limits assumed): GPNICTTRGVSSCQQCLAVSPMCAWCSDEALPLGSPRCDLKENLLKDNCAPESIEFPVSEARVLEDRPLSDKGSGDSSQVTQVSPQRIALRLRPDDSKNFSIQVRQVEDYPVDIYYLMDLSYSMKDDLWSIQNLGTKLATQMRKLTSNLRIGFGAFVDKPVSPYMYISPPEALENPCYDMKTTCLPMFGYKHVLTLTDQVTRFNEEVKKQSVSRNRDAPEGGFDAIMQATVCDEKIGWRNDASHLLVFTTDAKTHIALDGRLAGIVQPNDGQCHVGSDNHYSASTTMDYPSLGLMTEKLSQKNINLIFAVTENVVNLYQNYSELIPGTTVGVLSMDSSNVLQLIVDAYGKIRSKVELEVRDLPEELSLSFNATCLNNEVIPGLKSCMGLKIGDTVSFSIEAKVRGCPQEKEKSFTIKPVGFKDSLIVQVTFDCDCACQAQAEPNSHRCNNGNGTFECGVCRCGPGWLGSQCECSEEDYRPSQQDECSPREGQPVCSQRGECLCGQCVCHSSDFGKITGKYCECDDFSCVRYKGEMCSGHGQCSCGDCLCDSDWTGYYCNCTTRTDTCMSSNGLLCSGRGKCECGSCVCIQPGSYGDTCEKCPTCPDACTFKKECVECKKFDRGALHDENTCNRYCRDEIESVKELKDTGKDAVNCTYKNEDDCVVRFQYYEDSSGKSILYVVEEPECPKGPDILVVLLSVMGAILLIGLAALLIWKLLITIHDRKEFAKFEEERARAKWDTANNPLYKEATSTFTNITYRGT
Sequence of Integrin alpha-IIb/beta-3 (P08514 32-887 limits assumed): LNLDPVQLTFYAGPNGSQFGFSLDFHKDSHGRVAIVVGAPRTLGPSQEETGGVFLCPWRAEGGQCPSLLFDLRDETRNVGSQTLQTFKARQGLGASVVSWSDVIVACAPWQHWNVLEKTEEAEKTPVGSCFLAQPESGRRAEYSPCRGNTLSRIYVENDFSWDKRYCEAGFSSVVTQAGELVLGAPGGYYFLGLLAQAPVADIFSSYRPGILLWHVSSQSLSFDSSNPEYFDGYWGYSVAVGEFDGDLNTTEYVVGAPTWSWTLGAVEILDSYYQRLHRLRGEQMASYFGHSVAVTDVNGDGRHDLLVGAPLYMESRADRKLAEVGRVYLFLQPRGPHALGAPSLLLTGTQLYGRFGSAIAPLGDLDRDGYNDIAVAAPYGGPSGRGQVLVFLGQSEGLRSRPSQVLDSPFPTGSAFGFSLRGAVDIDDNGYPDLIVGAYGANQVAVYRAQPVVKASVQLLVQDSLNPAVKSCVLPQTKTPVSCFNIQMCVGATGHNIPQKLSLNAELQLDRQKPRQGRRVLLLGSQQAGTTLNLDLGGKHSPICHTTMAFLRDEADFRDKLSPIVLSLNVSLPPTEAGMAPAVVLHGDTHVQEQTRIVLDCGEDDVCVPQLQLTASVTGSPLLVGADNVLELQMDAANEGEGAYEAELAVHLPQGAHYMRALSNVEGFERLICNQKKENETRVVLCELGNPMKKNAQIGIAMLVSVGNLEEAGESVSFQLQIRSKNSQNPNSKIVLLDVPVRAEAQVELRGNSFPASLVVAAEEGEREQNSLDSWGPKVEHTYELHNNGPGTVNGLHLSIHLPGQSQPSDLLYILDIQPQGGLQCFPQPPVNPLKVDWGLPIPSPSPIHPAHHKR
Sequence of Integrin alpha-IIb/beta-3 (P08514 891-1039 limits assumed): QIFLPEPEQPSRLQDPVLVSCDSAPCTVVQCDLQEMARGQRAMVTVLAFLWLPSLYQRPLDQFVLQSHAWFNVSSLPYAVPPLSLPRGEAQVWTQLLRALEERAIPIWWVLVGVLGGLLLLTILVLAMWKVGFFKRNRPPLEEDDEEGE

T1 sequence (P05106 27-788 limits assumed): as the sequence (P05106 27-788 limits assumed) above
T1 sequence (P06756 31-889 limits assumed): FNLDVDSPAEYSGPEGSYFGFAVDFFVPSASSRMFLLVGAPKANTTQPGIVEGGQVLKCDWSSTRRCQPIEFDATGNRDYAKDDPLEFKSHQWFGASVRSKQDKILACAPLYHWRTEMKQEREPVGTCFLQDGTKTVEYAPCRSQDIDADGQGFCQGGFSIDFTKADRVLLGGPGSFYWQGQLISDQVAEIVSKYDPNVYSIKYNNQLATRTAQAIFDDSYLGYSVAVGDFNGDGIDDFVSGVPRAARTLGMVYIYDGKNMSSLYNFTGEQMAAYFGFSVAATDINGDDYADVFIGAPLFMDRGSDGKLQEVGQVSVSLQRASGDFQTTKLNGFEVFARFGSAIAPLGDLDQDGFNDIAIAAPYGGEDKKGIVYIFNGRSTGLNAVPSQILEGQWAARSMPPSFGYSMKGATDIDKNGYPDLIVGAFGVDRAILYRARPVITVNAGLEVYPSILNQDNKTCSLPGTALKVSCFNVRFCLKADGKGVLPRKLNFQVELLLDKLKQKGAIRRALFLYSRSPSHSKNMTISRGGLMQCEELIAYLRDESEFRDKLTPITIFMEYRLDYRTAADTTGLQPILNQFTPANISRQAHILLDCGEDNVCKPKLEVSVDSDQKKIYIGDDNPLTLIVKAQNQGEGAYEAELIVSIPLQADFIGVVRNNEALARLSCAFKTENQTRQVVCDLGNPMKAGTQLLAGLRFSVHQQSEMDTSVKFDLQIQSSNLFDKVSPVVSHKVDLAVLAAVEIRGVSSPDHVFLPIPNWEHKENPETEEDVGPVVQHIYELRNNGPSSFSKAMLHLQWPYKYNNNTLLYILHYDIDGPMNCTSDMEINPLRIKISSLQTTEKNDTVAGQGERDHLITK
T1 sequence (P06756 891-1048 limits assumed): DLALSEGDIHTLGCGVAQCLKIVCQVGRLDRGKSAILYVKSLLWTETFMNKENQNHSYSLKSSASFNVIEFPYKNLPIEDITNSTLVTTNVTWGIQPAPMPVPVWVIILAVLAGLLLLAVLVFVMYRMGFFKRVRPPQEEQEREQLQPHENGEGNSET

SMILES | Ki (Integrin alpha-V/beta-3 [1]) | IC50 (Integrin alpha-V/beta-3 [2]) | Ki [3]
O=C(O)C[C@@H]1Nc2ccc(C(=O)NCc3nc4ccccc4[nH]3)cc2CNC1=O | 30 nM | 5000 nM | 
CN1Cc2cc(C(=O)N(CC#N)Cc3nc4ccccc4[nH]3)ccc2N[C@@H](CC(=O)O)C1=O | 4 nM | 810 nM | 
CN(Cc1nc2c(N)cccc2[nH]1)C(=O)c1ccc2c(c1)CN(C)C(=O)[C@H](CC(=O)O)N2 | 5.5 nM | 810 nM | 
CN(Cc1nc2c([nH]1)CCCC2)C(=O)c1ccc2c(c1)CN(C)C(=O)[C@H](CC(=O)O)N2 | 5 nM |  | 2750 nM
Cc1cccc2[nH]c(CN(C)C(=O)c3ccc4c(c3)CN(C)C(=O)[C@H](CC(=O)O)N4)nc12 | 2 nM | 480 nM | 
O=C(O)C[C@@H]1Nc2ccc(C(=O)NCc3nc4ccccc4[nH]3)cc2CN(Cc2ccccc2)C1=O | 15 nM | 1500 nM | 
CN(Cc1nc2ccccc2[nH]1)C(=O)c1ccc2c(c1)CN(CCc1ccccc1)C(=O)[C@H](CC(=O)O)N2 | 4 nM | 90 nM | 
COc1ccc(OC)c2[nH]c(CN(C)C(=O)c3ccc4c(c3)CN(C)C(=O)[C@H](CC(=O)O)N4)nc12 | 1300 nM |  | 
CN(Cc1nc2ccc(C(F)(F)F)cc2[nH]1)C(=O)c1ccc2c(c1)CN(C)C(=O)[C@H](CC(=O)O)N2 | 8.5 nM | 1000 nM | 
CN(Cc1nc2cc(F)c(F)cc2[nH]1)C(=O)c1ccc2c(c1)CN(C)C(=O)[C@H](CC(=O)O)N2 | 2.5 nM | 540 nM | 
CN1Cc2cc(C(=O)N(Cc3nc4ccccc4[nH]3)Cc3nc4ccccc4[nH]3)ccc2N[C@@H](CC(=O)O)C1=O | 2.5 nM | 480 nM | 
CN(Cc1nc2cc3c(cc2[nH]1)OCO3)C(=O)c1ccc2c(c1)CN(C)C(=O)[C@H](CC(=O)O)N2 | 9 nM | 690 nM | 
CN1Cc2cc(C(=O)N(Cc3nc4ccccc4[nH]3)C3CCCCC3)ccc2N[C@@H](CC(=O)O)C1=O | 750 nM |  | 
CN(Cc1nc2ccccc2n1C)C(=O)c1ccc2c(c1)CN(C)C(=O)[C@H](CC(=O)O)N2 | 70 nM |  | 28000 nM
COc1cc2nc(CN(C)C(=O)c3ccc4c(c3)CN(C)C(=O)[C@H](CC(=O)O)N4)[nH]c2cc1OC | 180 nM |  | 
O=C(O)C[C@@H]1Nc2ccc(C(=O)NCc3nc4ccccc4[nH]3)cc2CN(CCc2cccnc2)C1=O | 10 nM | 350 nM | 
CN(Cc1nc2c([N+](=O)[O-])cccc2[nH]1)C(=O)c1ccc2c(c1)CN(C)C(=O)[C@H](CC(=O)O)N2 | 13 nM | 1100 nM | 
CCCCN(Cc1nc2ccccc2[nH]1)C(=O)c1ccc2c(c1)CN(C)C(=O)[C@H](CC(=O)O)N2 | 3.5 nM | 520 nM | 
CN(Cc1nc2ccccc2[nH]1)C(=O)c1ccc2c(c1)CNC(=O)[C@H](CC(=O)O)N2 | 6.5 nM | 500 nM | 
CN1Cc2cc(C(=O)N(CCc3ccccc3)Cc3nc4ccccc4[nH]3)ccc2N[C@@H](CC(=O)O)C1=O | 5 nM | 280 nM | 

SMILES | Ki (Integrin alpha-V/beta-3 [1]) | IC50 (Integrin alpha-V/beta-3 [2]) | Ki [3]
CN1Cc2cc(C(=O)NCc3nc4ccccc4[nH]3)ccc2N[C@@H](CC(=O)O)C1=O |  | 1650 nM | 
COCCN1Cc2cc(C(=O)NCc3nc4ccccc4[nH]3)ccc2N[C@@H](CC(=O)O)C1=O (racemic) | 28 nM | 3000 nM | 
CN(Cc1nc2ccccc2[nH]1)C(=O)c1ccc2c(c1)CN(CCc1ccc3c(c1)OCO3)C(=O)[C@H](CC(=O)O)N2 (racemic) | 6 nM | 250 nM | 
O=C(O)C[C@@H]1Nc2ccc(C(=O)NCc3nc4ccccc4[nH]3)cc2CN(CCc2ccc3c(c2)OCO3)C1=O (racemic) | 6.5 nM | 670 nM | 
CN(Cc1nc2ccccc2[nH]1)C(=O)c1ccc2c(c1)CN(CCC(C)(C)C)C(=O)[C@H](CC(=O)O)N2 (racemic) | 1.6 nM | 180 nM | 
CC(C)N1Cc2cc(C(=O)NCc3nc4ccccc4[nH]3)ccc2N[C@@H](CC(=O)O)C1=O (racemic) | 20 nM | 5100 nM | 
CN(Cc1nc2ccc([N+](=O)[O-])cc2[nH]1)C(=O)c1ccc2c(c1)CN(C)C(=O)[C@H](CC(=O)O)N2 (racemic) | 14 nM | 3000 nM | 
CN1Cc2cc(C(=O)NCc3ncc[nH]3)ccc2N[C@@H](CC(=O)O)C1=O (racemic) | 2900 nM |  | 47000 nM
CN(Cc1nc2ccccc2o1)C(=O)c1ccc2c(c1)CN(C)C(=O)[C@H](CC(=O)O)N2 (racemic) | 1100 nM |  | 30000 nM
CN(Cc1nc2cc(C#N)ccc2[nH]1)C(=O)c1ccc2c(c1)CN(C)C(=O)[C@H](CC(=O)O)N2 (racemic) | 15 nM | 690 nM | 
COCCN1Cc2cc(C(=O)N(C)Cc3nc4ccccc4[nH]3)ccc2N[C@@H](CC(=O)O)C1=O (racemic) | 3 nM | 340 nM | 
O=C(O)C[C@@H]1Nc2ccc(C(=O)NCc3nc4ccccc4[nH]3)cc2CN(CC(=O)O)C1=O (racemic) | 27 nM | 4500 nM | 
CN(Cc1nc2ccc(N)cc2[nH]1)C(=O)c1ccc2c(c1)CN(C)C(=O)[C@H](CC(=O)O)N2 (racemic) | 19 nM | 900 nM | 
O=C(O)C[C@@H]1Nc2ccc(C(=O)NCc3nc4ccccc4[nH]3)cc2CN(CCc2ccccc2)C1=O (racemic) | 9 nM | 750 nM | 
CN(Cc1nc2ccccc2s1)C(=O)c1ccc2c(c1)CN(C)C(=O)[C@H](CC(=O)O)N2 (racemic) | 480 nM |  | 29000 nM
CN1Cc2cc(C(=O)NCc3cc4ccccc4[nH]3)ccc2N[C@@H](CC(=O)O)C1=O (racemic) | 110 nM |  | > 50000 nM
CN(Cc1nc2cc(Cl)ccc2[nH]1)C(=O)c1ccc2c(c1)CN(C)C(=O)[C@H](CC(=O)O)N2 (racemic) | 11 nM | 900 nM | 
CN(Cc1nc2ccccc2[nH]1)C(=O)c1ccc2c(c1)CN(Cc1ccccc1)C(=O)[C@H](CC(=O)O)N2 (racemic) | 1.9 nM | 510 nM | 
CC(C)(C)CCN1Cc2cc(C(=O)NCc3nc4ccccc4[nH]3)ccc2N[C@@H](CC(=O)O)C1=O (racemic) | 15 nM | 1400 nM | 
CN1Cc2cc(C(=O)NCc3nc4ccccc4[nH]3)ccc2N[C@@H](CC(=O)O)C1=O (racemic) | 24 nM | 3600 nM | 
